The record followed here is patent US12421238B2, “Selective dihydropyrrolopyrimidine JAK2 inhibitors” (CHENGDU JINRUI FOUNDATION BIOTECH CO., LTD., priority 2019, dated 2025).

The nature of data set [1]: Pharmacokinetic test in SD rats, intragastric administration. Type of data set: in vivo. Particulars: rat, po, single intragastric administration, 25 mg/kg, plasma; for Cmax: read-out: Blood concentration Cmax; for AUC(0-t): read-out: Curve area AUClast; for half-life: read-out: Half life t1/2 (converted); for Tmax: read-out: Time to peak Tmax. As to the method: SD rats were used as the test animals.
Standard curve and preparation and processing of quality control samples:
Stock solution was diluted with 50% acetonitrile/water solution to obtain standard working solutions of 0.04, 0.10, 0.20, 0.40, 1.00, 2.00, 4.00 μg/mL, and quality control working solutions of 0.10, 1.00, 3.00 μg/mL. 2.50 μL of standard curve working solutions and quality control working solutions were added to 47.5 μL of blank rat plasma, respectively, to obtain standard curve solutions having analyte concentrations of 2.00, 5.00, 10.00, 20.00, 50.00, 100.00, 200.00 ng/mL and quality control samples having concentrations of 5.00, 50.00, and 150.00 ng/mL. 200 μL of acetonitrile (containing 5 ng/mL of the internal standard loratadine) was added. After vortexing for 3 minutes, the solutions were centrifuged at 15000 rpm at 4° C. for 15 minutes. 100 μL of the supernatant was taken for LC-MS/MS analysis. WinNonlin® 8.0 was used to calculate the experimental results.

Another data set concerns the target JAK2 (Homo sapiens, UniProt O60674). As to the kind of experiment: Kinase activity test on JAK2 (Caliper EZ Reader conversion rate). Particulars: for JAK1/JAK2 / JAK3/JAK2: ratio of IC50 values; for JAK1/JAK2: selectivity for JAK2 over JAK1; for JAK3/JAK2: selectivity for JAK2 over JAK3.
The next data set deals with ICR mice. As to the kind of experiment: Acute toxicity test, single oral administration to ICR mice (MTD). Type of data set: in vivo.
Assay in data set [2]: as above
The data set is classed as in vivo. The settings on record: ICR, mouse, in vivo, po, read-out: MTD (maximum tolerated dose).

In the next data set the test system is HEL92.1.7. As to the kind of experiment: HEL92.1.7 cell proliferation experiment (Cell Titer-Glo). The data set is classed as cell-based. Particulars: Homo sapiens, HEL 92.1.7; HEL92.1.7 cells, 72 hours.
The next data set has as its system TF-1. As to the kind of experiment: TF-1 cell proliferation experiment (CellTiter Glo). The settings on record: Homo sapiens; TF-1 cells, 72 hours; read-out: TF-1 (μM), proliferation inhibition. The data set is classed as cell-based.
In the next data set the target is T1, JAK3 (Homo sapiens, UniProt P52333).
T1 sequence (P52333 1-1124): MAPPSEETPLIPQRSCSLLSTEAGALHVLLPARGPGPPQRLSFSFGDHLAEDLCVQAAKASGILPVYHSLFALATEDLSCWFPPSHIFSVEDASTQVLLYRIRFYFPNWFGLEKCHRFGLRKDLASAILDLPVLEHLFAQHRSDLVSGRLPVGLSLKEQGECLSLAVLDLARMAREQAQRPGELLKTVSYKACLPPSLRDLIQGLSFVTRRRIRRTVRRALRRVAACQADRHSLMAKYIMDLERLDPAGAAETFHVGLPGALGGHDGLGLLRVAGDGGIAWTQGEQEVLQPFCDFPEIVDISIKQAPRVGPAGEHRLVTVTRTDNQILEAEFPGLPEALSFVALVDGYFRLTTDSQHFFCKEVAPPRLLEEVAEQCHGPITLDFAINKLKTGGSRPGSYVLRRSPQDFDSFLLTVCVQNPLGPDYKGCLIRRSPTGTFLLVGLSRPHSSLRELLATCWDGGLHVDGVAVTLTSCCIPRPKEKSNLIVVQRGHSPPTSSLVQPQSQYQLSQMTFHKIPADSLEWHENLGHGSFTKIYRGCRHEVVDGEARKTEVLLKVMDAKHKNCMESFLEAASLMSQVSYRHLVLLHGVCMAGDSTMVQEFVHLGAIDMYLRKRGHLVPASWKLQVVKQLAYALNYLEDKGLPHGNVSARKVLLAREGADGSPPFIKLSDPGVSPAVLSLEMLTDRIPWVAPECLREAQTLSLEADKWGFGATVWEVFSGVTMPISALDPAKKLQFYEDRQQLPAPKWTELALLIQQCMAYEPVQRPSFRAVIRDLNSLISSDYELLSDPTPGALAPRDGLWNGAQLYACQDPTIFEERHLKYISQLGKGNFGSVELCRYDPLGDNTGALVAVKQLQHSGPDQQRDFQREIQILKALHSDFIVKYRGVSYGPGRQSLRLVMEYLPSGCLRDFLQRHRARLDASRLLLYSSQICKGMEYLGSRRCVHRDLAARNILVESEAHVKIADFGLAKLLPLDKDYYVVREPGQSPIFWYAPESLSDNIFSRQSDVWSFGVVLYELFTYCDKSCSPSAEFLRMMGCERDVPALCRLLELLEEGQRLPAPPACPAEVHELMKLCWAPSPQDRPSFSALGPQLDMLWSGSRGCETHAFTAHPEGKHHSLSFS
As to the kind of experiment: Kinase activity test on JAK3 (Caliper EZ Reader conversion rate).

In another data set the target is JAK1 (Homo sapiens, UniProt P23458). As to the kind of experiment: Kinase activity test on JAK1 (Caliper EZ Reader conversion rate).
JAK1, sequence (P23458 whole entry): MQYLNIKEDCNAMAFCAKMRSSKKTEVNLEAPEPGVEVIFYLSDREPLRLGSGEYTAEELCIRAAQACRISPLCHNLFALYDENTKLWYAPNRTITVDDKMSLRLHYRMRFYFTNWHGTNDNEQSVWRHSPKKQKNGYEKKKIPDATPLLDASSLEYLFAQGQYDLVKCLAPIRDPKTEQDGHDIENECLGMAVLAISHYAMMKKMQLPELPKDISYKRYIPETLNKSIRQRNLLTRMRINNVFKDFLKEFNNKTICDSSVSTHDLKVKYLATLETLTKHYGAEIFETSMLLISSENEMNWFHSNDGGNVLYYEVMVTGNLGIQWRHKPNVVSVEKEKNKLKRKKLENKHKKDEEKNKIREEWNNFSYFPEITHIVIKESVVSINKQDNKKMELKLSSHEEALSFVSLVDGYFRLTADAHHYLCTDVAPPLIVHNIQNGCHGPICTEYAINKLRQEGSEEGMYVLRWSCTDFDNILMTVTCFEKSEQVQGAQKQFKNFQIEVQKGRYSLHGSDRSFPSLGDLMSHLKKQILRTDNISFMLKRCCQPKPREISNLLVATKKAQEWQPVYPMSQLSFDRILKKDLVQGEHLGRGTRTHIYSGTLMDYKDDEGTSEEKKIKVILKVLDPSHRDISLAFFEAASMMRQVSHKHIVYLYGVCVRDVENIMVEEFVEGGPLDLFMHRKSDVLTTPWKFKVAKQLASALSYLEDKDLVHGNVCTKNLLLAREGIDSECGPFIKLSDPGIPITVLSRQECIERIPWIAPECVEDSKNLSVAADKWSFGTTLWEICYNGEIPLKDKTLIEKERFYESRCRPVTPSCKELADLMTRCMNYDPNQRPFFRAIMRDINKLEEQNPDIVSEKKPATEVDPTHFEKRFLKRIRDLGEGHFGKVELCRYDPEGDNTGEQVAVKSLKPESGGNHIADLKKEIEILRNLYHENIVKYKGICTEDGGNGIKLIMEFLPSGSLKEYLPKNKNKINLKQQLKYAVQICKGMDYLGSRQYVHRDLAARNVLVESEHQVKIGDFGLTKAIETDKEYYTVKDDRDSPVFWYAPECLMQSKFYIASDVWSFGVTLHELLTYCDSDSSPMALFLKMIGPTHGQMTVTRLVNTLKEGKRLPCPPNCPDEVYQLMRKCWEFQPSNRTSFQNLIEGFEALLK

JAK2, sequence (O60674 whole entry): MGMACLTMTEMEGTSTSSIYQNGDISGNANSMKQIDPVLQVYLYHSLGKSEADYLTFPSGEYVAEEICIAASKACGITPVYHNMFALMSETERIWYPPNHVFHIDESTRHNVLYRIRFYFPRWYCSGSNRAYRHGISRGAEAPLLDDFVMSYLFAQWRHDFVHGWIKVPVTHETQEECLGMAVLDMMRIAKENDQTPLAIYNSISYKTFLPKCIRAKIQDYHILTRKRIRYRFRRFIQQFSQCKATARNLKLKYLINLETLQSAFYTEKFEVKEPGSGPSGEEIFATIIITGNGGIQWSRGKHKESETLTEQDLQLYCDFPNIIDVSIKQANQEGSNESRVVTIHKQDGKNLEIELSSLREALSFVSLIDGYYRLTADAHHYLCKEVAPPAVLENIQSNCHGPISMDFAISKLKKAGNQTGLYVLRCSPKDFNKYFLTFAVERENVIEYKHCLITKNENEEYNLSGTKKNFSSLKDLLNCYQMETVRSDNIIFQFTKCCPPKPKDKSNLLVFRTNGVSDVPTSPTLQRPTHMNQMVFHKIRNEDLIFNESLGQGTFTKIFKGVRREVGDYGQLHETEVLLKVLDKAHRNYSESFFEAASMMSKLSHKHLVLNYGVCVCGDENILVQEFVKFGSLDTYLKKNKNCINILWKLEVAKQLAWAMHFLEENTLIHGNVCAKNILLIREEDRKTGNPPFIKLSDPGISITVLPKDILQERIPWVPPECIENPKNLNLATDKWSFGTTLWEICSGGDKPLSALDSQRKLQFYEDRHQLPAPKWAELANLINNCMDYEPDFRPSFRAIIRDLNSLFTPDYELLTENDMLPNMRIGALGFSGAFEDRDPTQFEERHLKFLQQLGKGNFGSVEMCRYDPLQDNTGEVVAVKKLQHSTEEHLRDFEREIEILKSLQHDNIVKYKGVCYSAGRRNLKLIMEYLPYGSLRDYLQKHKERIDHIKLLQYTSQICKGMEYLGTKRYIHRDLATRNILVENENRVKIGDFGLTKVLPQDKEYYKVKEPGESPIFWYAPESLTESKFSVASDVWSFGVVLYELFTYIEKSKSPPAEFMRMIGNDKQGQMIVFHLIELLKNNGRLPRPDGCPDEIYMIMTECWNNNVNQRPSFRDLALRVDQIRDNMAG

For `CC(C)(C)NS(=O)(=O)c1cccc(N2CCc3cnc(Nc4ccc(C5CCNCC5)cc4)nc32)c1` [Compound I-20], in data set [1], the Cmax amounted to 1030 ng/mL, the AUC(0-t) worked out at 912 ng·h/mL, the half-life is 6.3 h and the Tmax amounted to 2 h. Besides, at JAK2, the IC50 was 1 nM, the JAK1/JAK2 is listed as 130 and the JAK3/JAK2 was determined as 1433. The “MTD (maximum tolerated dose)” value in the data set on ICR mice is reported as over 2000 mg/kg. In addition, the MTD at 6 days in data set [2] was over 2000 mg/kg. For the same compound, in the data set on HEL92.1.7, the IC50 is 0.25 µM. The IC50 in the data set on TF-1 was determined as 0.19 µM. The same compound returned an IC50 on JAK3 of 1430 nM. At JAK1, this compound returned an IC50 of 130 nM.

Turning to `CC(C)(C)NS(=O)(=O)c1cccc(N2CCc3cnc(Nc4ccc(CN5CCSCC5)cc4)nc32)c1` [Compound I-13], in data set [1], the Cmax was found to be 979 ng/mL, the AUC(0-t) came to 955 ng·h/mL, the half-life was 5.5 h and the Tmax stood at 2 h. On JAK2, the IC50 amounted to 1 nM, the JAK1/JAK2 was found to be 89 and the JAK3/JAK2 was 865. In addition, in data set [2], the maximum tolerated dose (MTD) at 6 days was at least 1000 mg/kg. The compound further returned an IC50 with HEL92.1.7 of 0.31 µM. For the same compound, in the data set on TF-1, the IC50 was determined as 0.27 µM. For the same compound, the IC50 against JAK3 stood at 865 nM. Moreover, on JAK1, the IC50 came out at 89 nM.

On to `CN1CCN(c2ccc(Nc3ncc4c(n3)N(c3cccc(S(=O)(=O)NC(C)(C)C)c3)CC4)cc2)CC1` [Compound I-15], for which, in data set [1], the Cmax amounted to 1240 ng/mL, the AUC(0-t) was found to be 934 ng·h/mL, the half-life is 6.8 h and the Tmax was 1.5 h. In addition, on JAK2, the IC50 stood at 0.73 nM, the JAK1/JAK2 is 99 and the JAK3/JAK2 is on record as 819. Also, in the data set with ICR mice, the “MTD (maximum tolerated dose)” value was over 2000 mg/kg. Besides, the MTD at 6 days in data set [2] was over 2000 mg/kg. The same compound had an IC50 in the data set with HEL92.1.7 of 0.17 µM. Besides, in the data set on TF-1, the IC50 came to 0.12 µM. The same compound had an IC50 on JAK3 of 598 nM. Further, the IC50 against JAK1 came out at 72 nM.

As to `CC(C)(C)NS(=O)(=O)c1cccc(N2CCc3cnc(Nc4ccc(OCCN5CCCC5)cc4)nc32)c1` [Compound I-1], in data set [1], the Cmax was determined as 998 ng/mL, the AUC(0-t) came to 798 ng·h/mL, the half-life is 5.8 h and the time of peak concentration (Tmax) came out at 1 h. Moreover, at JAK2, the IC50 was 2.5 nM, the JAK1/JAK2 is recorded as 84 and the JAK3/JAK2 was determined as 504. The MTD at 6 days in data set [2] was over 2000 mg/kg. In addition, the IC50 in the data set on HEL92.1.7 stood at 0.23 µM. Further, the IC50 in the data set with TF-1 was found to be 0.15 µM. The IC50 on JAK3 was 1260 nM. Besides, the IC50 at JAK1 is 210 nM.

On to `CN1CCN(CCOc2ccc(Nc3ncc4c(n3)N(c3cccc(S(=O)(=O)NC(C)(C)C)c3)CC4)cc2)CC1` [Compound I-4], for which, in data set [1], the Cmax was 1100 ng/mL, the AUC(0-t) was 807 ng·h/mL, the half-life is 6.2 h and the time to peak (Tmax) is 1.5 h. On JAK2, the IC50 turned out to be 1.2 nM, the JAK1/JAK2 is on record as 87 and the JAK3/JAK2 is given as 850. In the data set on ICR mice, the “MTD (maximum tolerated dose)” value is 1000 mg/kg. Also, the MTD at 6 days in data set [2] was at least 1000 mg/kg. The same compound showed an IC50 in the data set with HEL92.1.7 of 0.34 µM. For the same compound, the IC50 with TF-1 came to 0.18 µM. This compound also showed an IC50 on JAK3 of 1020 nM. On JAK1, this compound registered an IC50 of 105 nM.

`CC(C)(C)NS(=O)(=O)c1cccc(N2CCc3cnc(Nc4ccc(OCCN5CCNCC5)cc4)nc32)c1` [Compound I-2]: in data set [1], the Cmax came to 1020 ng/mL, the AUC(0-t) came to 839 ng·h/mL, the half-life is 6 h and the time to peak (Tmax) was determined as 1.5 h. Besides, at JAK2, the IC50 was 1.1 nM, the JAK1/JAK2 was determined as 172 and the JAK3/JAK2 was 891. For the same compound, the “MTD (maximum tolerated dose)” value in the data set with ICR mice is listed as 1500 mg/kg. Also, the MTD at 6 days in data set [2] was at least 1000 mg/kg. This compound also had an IC50 in the data set on HEL92.1.7 of 0.3 µM. Further, the IC50 in the data set on TF-1 was 0.21 µM. The compound also gave an IC50 against JAK3 of 980 nM. In addition, the IC50 on JAK1 was found to be 189 nM.

As to `CC(C)(C)NS(=O)(=O)c1cccc(N2CCc3cnc(Nc4ccc(OC5CCNCC5)cc4)nc32)c1` [Compound I-19], in data set [1], the Cmax stood at 1120 ng/mL, the AUC(0-t) is 935 ng·h/mL, the half-life was 6.2 h and the Tmax amounted to 1.5 h. On JAK2, the IC50 was determined as 0.9 nM, the JAK1/JAK2 is recorded as 134 and the JAK3/JAK2 was determined as 1689. For the same compound, the “MTD (maximum tolerated dose)” value in the data set with ICR mice came out at 1500 mg/kg. Besides, in data set [2], the MTD at 6 days is at least 1000 mg/kg. The IC50 in the data set with HEL92.1.7 came to 0.21 µM. Also, the IC50 in the data set with TF-1 is 0.17 µM. At JAK3, this compound registered an IC50 of 1520 nM. The same compound gave an IC50 against JAK1 of 121 nM.
